Columns and labels:
p110δ = target: T1, p110δ (Homo sapiens, UniProt O00329); assay: Biochemical PI3K inhibition assay, p110δ; settings: 10 μM ATP, two hours
T1 construct: His-tag; made in house; host or cells: Sf9 insect cells (baculovirus)
Description: (§1) cDNA clones of PIK3CA, PIK3CB and PIK3CG were obtained from Origene (Rockville, MD, USA). PIK3CD was generously provided by Novartis Pharmaceuticals. The cDNA clones were sub-cloned into pFastBac His-Tag (Invitrogen, Carlsbad, CA, USA) and baculovirus clones were generated by the Bac-to-Bac expression system (Invitrogen). p110α, p110β and p110δ were co-expressed in Sf9 insect cells (Invitrogen) with a nSH2-iSH2 fragment of the regulatory subunit p85 comprising AA residues 322 to 600 [4]. p110γ was expressed without a regulatory subunit. Sf9 cells were lysed in a buffer containing 50 mM sodium phosphate, pH 8.0, 400 mM NaCl, 5% glycerol, 1% Triton X-100, 10 mM 2-mercaptoethanol, 1 mM orthovanadate, 10 mM imidazole, and sonicated on ice for 1 minute. Proteins were purified by adding Ni-NTA Superflow beads (Qiagen, Valencia, CA, USA) to the lysate and subsequent rolling for 30 min at 4°C. Beads were washed twice with 50 mM phosphate buffer, pH 8.0, 0.5 M NaCl, 50 mM Imidazole, 2 mM DTT and eluted in the same buffer but with 200 mM imidazole. Purified PI3K's were mixed 1:1 with glycerol and stored at -20°C.
(§2) J-series inhibitors were dissolved, serial diluted in DMSO and deposited into 96 well plates at a final DMSO concentration of 1%. We used a novel assay to determine their potency and selectivity. In brief, micelles of 2.5 μg L-a-Phosphatidylinositol and 2.5 μg 1,2-Diacyl-sn-glycero-3-phospho-L-serine were formed by sonication, mixed with the individual PI3K isoforms and added to the drug dilutions in a reaction buffer containing 10 mM HEPES, 25 mM NaCl, 0.125 μg/μl BSA, and 2 mM BME (final concentrations). Reactions were timed after the addition of 10 μM ATP with 40 μCi/ml γ-32P-ATP (PerkinElmer, Waltham, MA, USA) and 2 mM MgCl2 (all final concentrations). The reactions were terminated after two hours by the addition of 2 N HCl and the lipids extracted with 1:1 MetOH/Chloroform. Radio-labeled phosphatidyl-inositol-3-phosphate in the extracted organic fraction was quantified after the addition of Microscint O (PerkinElmer) using a TopCount 96 well plate scintillation counter (PerkinElmer). IC50 concentrations and inhibition curves were calculated using Prism 5 (GraphPad Software, La Jolla, CA).

[1] = tested on: Intraspleenic-injected HCT116 liver and lung metastases; assay: Intraspleenic tumor model (metastasis); type: in vivo, mice; settings: 150 mg/kg IP daily, three weeks
Procedure: Intraspleenic-injected HCT116 liver and lung metastases in NOD.Cg-Prkdcscid Il2rgtm1Wjl/SzJ mice (Jackson Laboratory, Bar Harbor, ME, USA) were generated as described in Erikson et. al.. J-series compounds were solubilized in 1:1 DMSO/Cremophor EL (Sigma-Aldrich) and diluted 2.3-fold in water to a final concentration of 7.5 mg/ml. 400 μl of this formulation (150 mg/kg) was injected intraperitoneally (IP) once a day for three weeks, beginning the third day post-surgery. Mice were sacrificed after the treatment and the liver, lungs, and spleen sampled. DNA was extracted from organs with the DNeasy Blood & Tissue Kit (Qiagen). The qPCR assay used for quantification of human DNA in mouse organs has been described. All mouse protocols were designed in accordance with the NIH Guide for the Care and Use of Laboratory Animals and approved by the Institutional Animal Care and Use Committee.

p110α = target: T2, p110α (Homo sapiens, UniProt P42336); assay: Biochemical PI3K inhibition assay, p110α; settings: for IC50: 10 μM ATP, two hours
T2 construct: His-tag; made in house; host or cells: Sf9 insect cells (baculovirus)
Procedure: PIK3CD was generously provided by Novartis Pharmaceuticals. […] Sf9 cells were lysed in a buffer containing 50 mM sodium phosphate, pH 8.0, 400 mM NaCl, 5% glycerol, 1% Triton X-100, 10 mM 2-mercaptoethanol, 1 mM orthovanadate, 10 mM imidazole, and sonicated on ice for 1 minute. Proteins were purified by adding Ni-NTA Superflow beads (Qiagen, Valencia, CA, USA) to the lysate and subsequent rolling for 30 min at 4°C. Beads were washed twice with 50 mM phosphate buffer, pH 8.0, 0.5 M NaCl, 50 mM Imidazole, 2 mM DTT and eluted in the same buffer but with 200 mM imidazole. Purified PI3K's were mixed 1:1 with glycerol and stored at -20°C.
as §2, with “In brief, micelles of 2.5 μg L-a-Phosphatidylinositol and 2.5 μg 1,2-Diacyl-sn-glycero-3-phospho-L-serine were formed by sonication, mixed with the individual PI3K isoforms and added to the drug dilutions in a reaction buffer containing 10 mM HEPES, 25 mM NaCl, 0.125 μg/μl BSA, and 2 mM BME (final concentrations).” left out

p110β = target: T3, p110β (Homo sapiens, UniProt P42338); assay: Biochemical PI3K inhibition assay, p110β; settings: 10 μM ATP, two hours
T3 construct: His-tag; made in house; host or cells: Sf9 insect cells (baculovirus)
Description: as §1, §2

p110γ = target: T4, p110γ (Homo sapiens, UniProt P48736); assay: Biochemical PI3K inhibition assay, p110γ; settings: 10 μM ATP, two hours; no regulatory subunit
T4 construct: His-tag; made in house; host or cells: Sf9 insect cells (baculovirus)
Description: as §1, §2

[2] = tested on: P-Akt in HCT116 xenografts; assay: Intra-tumor P-Akt levels in xenografts; type: in vivo, nude mice; settings: post IP injection
Procedure: (§3) Tumor xenografts were established by injecting 5x10^6 HCT116 cells subcutaneously into the right flanks of female nude mice. Tumor volume was measured twice weekly using electronic calipers and calculated as length x width^2 x 0.5. After tumors reached an average volume of 50 mm^3, animals were treated daily with drugs at 150 mg/kg via IP injection for three weeks. Tumor phospho-Akt levels were determined following harvest on the last day of the study. Xenografts were excised, snap frozen in liquid nitrogen and pulverized with a pestle. Homogenized tissue was re-suspended in lysis buffer (Cell Signaling Technology) and protein contents normalized by Bradford assay (Bio-Rad Laboratories, Hercules, CA, USA). Western blots were performed as described above.

[3] = tested on: subcutaneous HCT116 xenograft tumors; assay: Xenograft tumor model; type: in vivo; settings: nude mice, 150 mg/kg IP daily for three weeks
Procedure: as §3

[4] = tested on: phosphorylation of Akt1 and Akt2 in HCT116 cells; assay: P-Akt western analysis in cells; type: cell-based, human; settings: 6 hours, concentrations that inhibited cell growth
Procedure: Phopspho-Akt levels were assayed in HCT116 cells. 1x10^6 cells/well were seeded in six-well plates and serum starved for 2 hours in McCoy's 5A medium. Drugs were pre-mixed with complete medium containing 10% FBS and incubated with the cells for 6 hours. Cells were lysed on ice with 100 mM Tris-HCl, pH 7.0, 10% 2-mercaptoethanol, 4% SDS, 20% glycerol, 0.05% Bromophenol blue, 20 μl 1 mM NaF, 1 mM Na3VO4, and Complete Protease Inhibitor Cocktail Tablet (Roche, Nutley, NJ, USA) without EDTA and sonicated for 30 seconds. Phospho-Akt was assayed with Phospho-Akt (Ser473) antibody (#9271, Cell Signaling Technology, Danvers, MA, USA). Subsequently the membrane was stripped and incubated with Akt1 (D-17) antibody (sc-7126, Santa Cruz Biotechnology,Santa Cruz, CA, USA)) for loading control.

T2 sequence (P42336 whole entry): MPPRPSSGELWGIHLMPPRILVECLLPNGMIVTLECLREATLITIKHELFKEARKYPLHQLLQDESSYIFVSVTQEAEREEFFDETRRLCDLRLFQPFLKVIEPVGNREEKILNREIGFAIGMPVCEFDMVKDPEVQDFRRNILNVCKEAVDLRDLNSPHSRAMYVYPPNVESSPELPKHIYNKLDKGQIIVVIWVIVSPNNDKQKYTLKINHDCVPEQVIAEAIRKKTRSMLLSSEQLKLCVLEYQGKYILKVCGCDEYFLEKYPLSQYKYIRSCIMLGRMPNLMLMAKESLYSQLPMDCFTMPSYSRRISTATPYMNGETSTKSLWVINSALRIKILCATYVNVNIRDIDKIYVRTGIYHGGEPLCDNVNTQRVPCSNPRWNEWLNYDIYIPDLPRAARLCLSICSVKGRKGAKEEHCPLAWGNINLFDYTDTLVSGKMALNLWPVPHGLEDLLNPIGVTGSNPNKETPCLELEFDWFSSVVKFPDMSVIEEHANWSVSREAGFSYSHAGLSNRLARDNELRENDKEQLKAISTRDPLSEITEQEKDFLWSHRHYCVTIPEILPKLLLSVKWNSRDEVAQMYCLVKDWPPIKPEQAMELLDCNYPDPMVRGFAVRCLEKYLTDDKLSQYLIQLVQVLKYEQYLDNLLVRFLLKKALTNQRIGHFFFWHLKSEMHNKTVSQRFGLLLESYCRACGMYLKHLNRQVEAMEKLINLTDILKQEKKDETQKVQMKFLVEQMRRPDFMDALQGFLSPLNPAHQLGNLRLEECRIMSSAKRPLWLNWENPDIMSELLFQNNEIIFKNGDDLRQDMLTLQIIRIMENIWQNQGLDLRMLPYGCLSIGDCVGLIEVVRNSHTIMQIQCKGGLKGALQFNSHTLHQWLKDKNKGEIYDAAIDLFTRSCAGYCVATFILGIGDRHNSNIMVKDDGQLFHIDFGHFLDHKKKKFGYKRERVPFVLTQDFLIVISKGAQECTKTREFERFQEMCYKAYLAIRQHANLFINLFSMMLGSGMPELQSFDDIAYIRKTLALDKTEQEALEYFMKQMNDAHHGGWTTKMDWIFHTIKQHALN
T2 sequence (P27986 322-600 partner limits assumed): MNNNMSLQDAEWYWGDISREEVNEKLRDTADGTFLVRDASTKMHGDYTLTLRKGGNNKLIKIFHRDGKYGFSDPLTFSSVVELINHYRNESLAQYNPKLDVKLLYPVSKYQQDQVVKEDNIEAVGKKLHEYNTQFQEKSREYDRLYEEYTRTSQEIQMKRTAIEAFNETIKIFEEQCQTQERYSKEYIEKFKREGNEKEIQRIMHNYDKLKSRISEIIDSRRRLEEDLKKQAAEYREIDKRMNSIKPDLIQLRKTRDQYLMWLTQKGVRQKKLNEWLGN
T4 sequence (P48736 whole entry): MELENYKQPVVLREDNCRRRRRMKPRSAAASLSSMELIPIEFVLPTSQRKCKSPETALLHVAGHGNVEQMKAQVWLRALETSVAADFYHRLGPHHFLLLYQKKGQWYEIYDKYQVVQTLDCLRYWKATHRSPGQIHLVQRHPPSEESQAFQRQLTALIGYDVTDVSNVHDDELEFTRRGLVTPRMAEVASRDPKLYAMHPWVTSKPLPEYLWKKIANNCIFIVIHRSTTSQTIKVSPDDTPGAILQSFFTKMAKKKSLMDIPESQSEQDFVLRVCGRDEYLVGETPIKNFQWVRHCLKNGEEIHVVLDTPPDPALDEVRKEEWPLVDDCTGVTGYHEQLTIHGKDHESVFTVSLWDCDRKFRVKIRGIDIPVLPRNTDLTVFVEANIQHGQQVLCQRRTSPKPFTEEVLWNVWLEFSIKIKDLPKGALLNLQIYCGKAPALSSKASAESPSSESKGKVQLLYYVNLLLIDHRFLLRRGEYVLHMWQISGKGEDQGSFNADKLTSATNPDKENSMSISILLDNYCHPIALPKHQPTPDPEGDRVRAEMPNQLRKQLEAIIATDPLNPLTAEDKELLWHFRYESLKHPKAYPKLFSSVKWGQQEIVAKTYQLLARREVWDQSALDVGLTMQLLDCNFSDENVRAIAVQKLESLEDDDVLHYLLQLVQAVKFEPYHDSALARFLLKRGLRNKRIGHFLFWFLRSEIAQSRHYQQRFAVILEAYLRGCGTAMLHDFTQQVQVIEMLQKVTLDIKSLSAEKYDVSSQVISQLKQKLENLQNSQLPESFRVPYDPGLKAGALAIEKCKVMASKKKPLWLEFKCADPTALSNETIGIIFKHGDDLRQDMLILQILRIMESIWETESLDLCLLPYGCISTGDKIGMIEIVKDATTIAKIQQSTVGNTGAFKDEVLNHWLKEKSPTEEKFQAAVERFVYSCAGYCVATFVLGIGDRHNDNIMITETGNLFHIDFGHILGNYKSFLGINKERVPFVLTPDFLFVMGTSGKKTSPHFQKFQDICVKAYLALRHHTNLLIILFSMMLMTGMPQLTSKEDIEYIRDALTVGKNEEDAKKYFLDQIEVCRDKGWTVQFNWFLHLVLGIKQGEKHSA
T3 sequence (P42338 whole entry): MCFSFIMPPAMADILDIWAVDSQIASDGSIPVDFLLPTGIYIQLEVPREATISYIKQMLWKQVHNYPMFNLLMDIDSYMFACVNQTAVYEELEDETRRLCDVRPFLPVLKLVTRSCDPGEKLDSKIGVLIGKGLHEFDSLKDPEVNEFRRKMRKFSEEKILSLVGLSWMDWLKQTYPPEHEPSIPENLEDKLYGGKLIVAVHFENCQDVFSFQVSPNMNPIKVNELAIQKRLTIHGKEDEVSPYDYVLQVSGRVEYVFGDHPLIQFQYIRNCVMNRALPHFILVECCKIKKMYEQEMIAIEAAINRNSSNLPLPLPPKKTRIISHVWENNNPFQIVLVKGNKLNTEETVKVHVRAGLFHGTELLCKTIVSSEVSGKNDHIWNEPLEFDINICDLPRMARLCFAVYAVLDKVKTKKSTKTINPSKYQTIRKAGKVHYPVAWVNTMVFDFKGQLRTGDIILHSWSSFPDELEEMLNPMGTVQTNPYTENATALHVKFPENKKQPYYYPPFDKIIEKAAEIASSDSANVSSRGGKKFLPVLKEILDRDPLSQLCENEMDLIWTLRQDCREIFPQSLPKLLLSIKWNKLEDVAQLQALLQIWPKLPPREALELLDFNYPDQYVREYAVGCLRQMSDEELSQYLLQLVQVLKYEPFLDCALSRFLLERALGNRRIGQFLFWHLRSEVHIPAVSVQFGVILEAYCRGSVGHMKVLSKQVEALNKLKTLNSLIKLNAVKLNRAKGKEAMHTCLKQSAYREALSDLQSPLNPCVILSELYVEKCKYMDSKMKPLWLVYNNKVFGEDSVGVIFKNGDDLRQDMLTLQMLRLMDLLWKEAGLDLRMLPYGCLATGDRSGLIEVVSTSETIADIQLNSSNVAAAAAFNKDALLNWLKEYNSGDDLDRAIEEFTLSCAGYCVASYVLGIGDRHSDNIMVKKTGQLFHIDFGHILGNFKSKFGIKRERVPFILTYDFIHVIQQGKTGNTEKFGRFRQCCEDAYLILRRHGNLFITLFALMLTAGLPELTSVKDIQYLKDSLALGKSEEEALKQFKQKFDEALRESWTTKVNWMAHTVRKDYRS
T3 sequence (P27986 322-600 partner limits assumed): as the sequence (P27986 322-600 partner limits assumed) above
T1 sequence (O00329 whole entry): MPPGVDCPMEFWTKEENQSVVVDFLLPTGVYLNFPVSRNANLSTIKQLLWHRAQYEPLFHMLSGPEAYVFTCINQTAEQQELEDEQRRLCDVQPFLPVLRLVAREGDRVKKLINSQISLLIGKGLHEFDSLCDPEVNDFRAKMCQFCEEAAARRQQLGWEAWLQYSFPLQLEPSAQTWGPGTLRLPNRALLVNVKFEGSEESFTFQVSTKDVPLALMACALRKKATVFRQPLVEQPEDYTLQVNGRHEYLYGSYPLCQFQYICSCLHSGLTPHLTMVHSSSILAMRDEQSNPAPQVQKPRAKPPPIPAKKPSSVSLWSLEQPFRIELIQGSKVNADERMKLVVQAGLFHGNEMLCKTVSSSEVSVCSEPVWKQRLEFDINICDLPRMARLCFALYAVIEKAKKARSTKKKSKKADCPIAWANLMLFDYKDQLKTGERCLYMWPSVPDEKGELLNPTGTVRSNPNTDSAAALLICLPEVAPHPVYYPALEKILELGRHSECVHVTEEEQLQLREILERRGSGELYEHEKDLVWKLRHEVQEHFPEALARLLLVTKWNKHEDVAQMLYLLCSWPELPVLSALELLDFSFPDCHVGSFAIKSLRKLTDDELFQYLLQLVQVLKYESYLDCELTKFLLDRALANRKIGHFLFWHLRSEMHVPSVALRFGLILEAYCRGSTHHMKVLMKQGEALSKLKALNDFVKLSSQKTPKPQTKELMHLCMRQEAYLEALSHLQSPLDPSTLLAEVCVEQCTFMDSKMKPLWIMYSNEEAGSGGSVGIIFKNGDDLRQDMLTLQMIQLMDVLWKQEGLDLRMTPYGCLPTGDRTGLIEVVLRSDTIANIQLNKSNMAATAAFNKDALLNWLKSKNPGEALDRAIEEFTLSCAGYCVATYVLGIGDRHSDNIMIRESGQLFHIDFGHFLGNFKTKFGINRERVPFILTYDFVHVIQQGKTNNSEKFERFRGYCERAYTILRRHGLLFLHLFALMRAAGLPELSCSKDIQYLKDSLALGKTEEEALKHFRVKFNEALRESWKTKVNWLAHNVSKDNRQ
T1 sequence (P27986 322-600 partner limits assumed): as the sequence (P27986 322-600 partner limits assumed) above

| IC50 (p110δ) | IC50 (p110α) | IC50 (p110β) | IC50 (p110γ) | increase of inhibitory activity for PI3Kα (p110α; compared to J32) | increase of selectivity against the other three isoforms (p110α; J32 versus J27) | effect of substitution on PI3Kα potency/selectivity (in words) (p110α; SAR discussion) | Compound | metastatic lesions in the lungs [1] | metastatic foci in the liver (histopathology) ([1]; compared to vehicle) | reduction in primary tumor burden in the spleen (real-time PCR) ([1]; compared to vehicle) | reduction of metastatic liver burden (real-time PCR) ([1]; compared to vehicle) | intra-tumor P-Akt levels [2] | anti-tumor activity against subcutaneous HCT116 xenograft tumors [3] | phosphorylation of Akt1 and Akt2 (western blot) [4] |
| --- | --- | --- | --- | --- | --- | --- | --- | --- | --- | --- | --- | --- | --- | --- |
| 110 nM | 4 nM | 130 nM | 250 nM |  |  |  | CCN(/N=C/c1cnc2ccc(Br)cn12)S(=O)(=O)c1cc([N+](=O)[O-])c(N)cc1Cl [J128] | no lesions | few, if any, metastatic foci | ~ 50% | 9 fold |  |  |  |
| 26 nM | 2 nM | 46 nM | 73 nM | 7.5 fold |  |  | CCN(/N=C/c1cnc2ccc(Br)cn12)S(=O)(=O)c1cc([N+](=O)[O-])c(N)cc1C [J124-I] |  |  |  |  | reduced up to 3 hours | Only a minor anti-tumor activity | inhibitory effect |
| 1400 nM | 15 nM | 1200 nM | 620 nM |  | up to 8 fold | potency for PI3Kα was retained | CCN(/N=C/c1cnc2ccc(Br)cn12)S(=O)(=O)c1cc([N+](=O)[O-])ccc1C [J32] |  |  |  |  |  | Only a minor anti-tumor activity |  |
